In brackets after ≈: the same amount, converted by molar mass. Entries after “also recorded” stand apart in the source; their conditions may differ. Where two headings read alike, the source gives them in different places. Residues, ends and D or L forms follow the SMILES beside them. *: point of attachment. βNA = c1ccc2cc(N*)ccc2c1
Tests used:
[1] = MTT cytotoxicity assay; assay type: cell-based; details: human, 25 μg mL^-1, 48 h, read-out: percent recovery (cell viability)
Procedure: To assess toxicity of polyamine compounds we used HepG2 human liver carcinoma cells and Hek293T human embryonic kidney epithelial cells. The viability of cell lines was determined using a 3-(4,5-dimethylthiazol-2-yl)-2,5-diphenyltetrazolium bromide (MTT) molecular probe as previously described by our group ([Fleeman et al., 2015]). Briefly, 247, 266, 271 (Hek293T), or 250, 271, 314 (HepG2), alongside control efflux pump inhibitor PaβN, were diluted in 10% DMF from 25 μg mL^-1 to 3 μg mL^-1 using twofold dilutions, before being added to cells in DMEM with 10% FBS and 1% penicillin/streptomycin. Cells were then incubated for 48 h at 37°C with 5% CO2. Following this, viability was assessed by the addition of MTT and measuring the OD570 in a Biotek plate reader. Percent recovery was determined compared to no drug controls.

[2] = tested on: P. aeruginosa (1419); assay: Bacterial membrane depolarization (DiSC3 dye); assay type: cell-based; details: 25 μg mL^-1
Procedure: To determine the level of membrane depolarization by polyamine compounds a 3,3′-dipropylthiadicarbocyanine Iodide (DiSC3) fluorescence dye was used. Exponentially growing cultures were prepared as described above, before being harvested by centrifugation. Cells were next washed in buffer a [5 mM Hepes (pH 7.2), 5 mM glucose] and resuspended to an OD600 of 0.2 in the same buffer containing 100 mM KCL and 2 μM DiSC3. Samples were allowed to equilibrate for 15 min at room temperature to ensure uptake and quenching of the dye in bacterial membranes. Cells were aliquoted into 96-well plates and polyamines were added alongside the known efflux inhibitor PAβN (all at 25 μg mL^-1). Nisin (25 μg mL^-1) was used as a positive control to display depolarization effects. A Biotek plate reader was used to monitor fluorescence of wells, with a 622 nm excitation and 670 nm emission. For graphical representation, the maximum relative fluorescence at 2 min was used for comparison of lead agents to controls.

[3] = tested on: tetracycline-resistant P. aeruginosa isolate 1419; assay: Checkerboard potentiation assay with tetracycline; assay type: cell-based, Pseudomonas aeruginosa; details: for EC50: 20 h, inhibitor alone, 25 μg mL^-1 highest concentration tested, read-out: EPI* (inhibitory concentration of efflux pump inhibitor alone)
Procedure: (§1) Scaffold ranking library samples and individual polyamines were screened using checkerboard inhibitory assays to assess the potentiation of tetracycline and chloramphenicol. The test utilized a 96-well plate microtiter assay where the concentration of the scaffold or individual polyamine was decreased from 25 to 0.8 μg mL^-1 (average molarity of mixture samples 65 to 4 μM) along the rows, and the concentration of tetracycline or chloramphenicol was increased from 0.4 to 100 μM across the columns. […] However, with the known antibiotics, we report EC90 values in μM, which more accurately describes purified compounds. Plates were incubated statically at 37°C for 20 h, and the optical density (OD600) was determined using a Synergy 2 plate reader (BioTek). Potentiation modeling (detailed below) was performed to determine fold change in the 50 and 90% effective concentration of tetracycline or chloramphenicol.
(§2) Potentiation was quantified using a mathematical model developed by our group to assess the ability of library samples and individual compounds to effectively enhance the activity of tetracycline or chloramphenicol ([Hoel, 1987]). […] In this way, only libraries and compounds that potentiated tetracycline or chloramphenicol activity were pursued. The model is based on the following equation for modeling the percentage activity of a mixture of two agents with independent action ([Hoel, 1987]):
%Antibiotic & Comp(X1,X2)=%Antibiotic(X1)+%Comp(X2)−%Antibiotic(X1)⋅%Comp(X2)
Here, x1 and x2 are the concentrations of antibiotic (tetracycline or chloramphenicol) and library/compound (Comp) tested, respectively. This equation can be rearranged to model the effective percent activity (EC) of the antibiotic alone, after accounting for compound activity:
Eff%Antibiotic(X1)=%Antibiotic & Compound(X1,X2)−%Compound(X2)/1−%Compound(X2)
Thus, the model-adjusted checkerboards show the antibiotic activity post-potentiation, and from that one can determine the true change in Mic.

[4] = tested on: P. aeruginosa (1419); assay: Bactericidal assessment in combination with tetracycline; details: Pseudomonas aeruginosa, read-out: percent recovery (bacterial viability)
Procedure: Lead agents were screened for bactericidal activity as described by us previously ([Van Horn et al., 2014]; [Fleeman et al., 2015]), with the following modifications. Varying concentrations of tetracycline (0, 12, 25, and 50 μM) were used in combination with the MPC (25 μM) of lead agents 247, 250, 266, 271, and 314 against P. aeruginosa. […] Biofilm experiments were performed similar to those described by us previously ([Fleeman et al., 2015]; [von Salm et al., 2016]), with the following modifications. Polyamine agents 247, 250, 266, 271, and 314 were added at MPC into biofilm containing wells alongside varying concentrations of tetracycline (0, 12, 25, and 50 μM). Cellular viability was determined by serial dilution after a 20-h incubation at 37°C. Values were converted to percent recovery using no treatment controls. All data was generated from three biological replicates and two technical replicates.

[5] = tested on: P. aeruginosa; assay: Minimum inhibitory concentrations of antibiotics, P. aeruginosa isolates; assay type: cell-based; details: Pseudomonas aeruginosa, read-out: minimal inhibitory concentration
Procedure: (§3) The bacterial strains used in this study are multi-drug resistant clinical isolates that have previously been described (Supplementary Table S1; [Fleeman et al., 2015]). Organisms were grown in tryptic soy broth (TSB) for overnight cultures and cation adjusted Mueller Hinton broth (CA-MH II) was used for experimental procedures. All incubations were performed at 37°C. The minimum inhibitory concentrations (MICS) for all antibiotics tested against these organisms are shown in Supplementary Table S1.

[6] = tested on: S. aureus; assay: microbe, parasite or virus in culture; assay type: cell-based; details: Staphylococcus aureus
Procedure: as §3

[7] = tested on: A. baumannii 1643; assay: Minimum inhibitory concentrations of antibiotics, A. baumannii isolate; assay type: cell-based; details: Acinetobacter baumannii; strain 1643; read-out: minimal inhibitory concentration
Procedure: as §3

[8] = tested on: MRSA (USA300); assay: Potentiation of chloramphenicol, MRSA USA300 and norA mutant; assay type: cell-based, S. aureus
Procedure: as §1
as §2, with “The model is based on the following equation for modeling the percentage activity of a mixture of two agents with independent action ([Hoel, 1987]):” left out

[9] = Hek293T human embryonic kidney epithelial cells, vs solvent only controls
[10] = EC50 tetracycline without EPI / with EPI
[11] = EC90 tetracycline without EPI / with EPI

Row | Structure (SMILES) | recovery at 48 h, 25 μg mL^-1 [1, 9] | membrane depolarization (DiSC3 fluorescence change) [2] | FP* (fold potentiation of tetracycline EC50) [3, 10] | FP# (fold potentiation of tetracycline EC90) [3, 11] | EC50 ([3]; Pseudomonas aeruginosa) | MIC ([5]; strain 1418) | MIC ([5]; strain 1419) | other results
1 | N=C(N)NCCC[C@H](NC(=O)[C@@H](N)Cc1ccccc1)C(=O)Nc1ccc2ccccc2c1 [PAβN, phenylalanine arginine beta naphthalimide, reference compound] (H-Phe-Arg-βNA) | 63% | – | – | – | – | – | – | recovery at 48 h, 25 μg mL^-1 ([1]; HepG2 human liver carcinoma cells): 68%
2 | NC(N)=NCCC[C@H](NC(=O)[C@@H](N)Cc1ccccc1)C(=O)Nc1ccc2ccccc2c1 [PAβN, phenylalanine arginine beta naphthalimide, reference compound] (H-Phe-Arg-βNA) | – | strong increase in fluorescence | 65.5 fold | 8 fold | > 25 µg/mL | – | – | FP (fold potentiation of tetracycline EC90) ([3]; EC90 tetracycline no TPL / with TPL at 25 µg ml-1): 8.01 fold; EC90 ([3]; Pseudomonas aeruginosa, Torrey Pines Library alone, 25 µg ml-1 highest tested, read-out: TPL (inhibitory concentration of library alone, EC90)): > 25 µg/mL; viability at 25 µg/mL [4]: 76%
3 | COC(=O)[C@H]1[C@H]2C[C@@H]3c4[nH]c5cc(OC)ccc5c4CCN3C[C@H]2C[C@@H](OC(=O)c2cc(OC)c(OC)c(OC)c2)[C@@H]1OC [Reserpine, reserpine, reference compound] | – | – | 11.2 fold | 1 fold | > 25 µg/mL | – | – | –
4 | C[C@H]1[C@H](NC(=O)/C(=N\OC(C)(C)C(=O)O)c2csc(N)n2)C(=O)N1S(=O)(=O)O [aztreonam] | – | – | – | – | – | 6 µM (≈ 2.61 µg/mL) | 1 µM (≈ 0.435 µg/mL) | –
5 | O=C(N[C@H](CO)[C@H](O)c1ccc([N+](=O)[O-])cc1)C(Cl)Cl [chloramphenicol] | – | decreased in florescence | – | – | – | > 619 µM | 150 µM (≈ 48.5 µg/mL) | MIC ([6]; USA100, strain 635 (USA100), read-out: minimal inhibitory concentration): 110 µM (≈ 35.5 µg/mL); MIC ([6]; USA300, read-out: minimal inhibitory concentration, strain JE-2 norA knockout (USA300)): 100 µM (≈ 32.3 µg/mL); MIC ([6]; USA300, strain JE-2 parental (USA300), read-out: minimal inhibitory concentration): 110 µM (≈ 35.5 µg/mL); MIC [7]: 85 µM (≈ 27.5 µg/mL)
6 | CNCCCC[C@@H](CN)NC[C@H](Cc1ccccc1)NCCc1ccccc1 [compound 247] | 84% | – | – | – | > 25 µg/mL | – | – | potentiation of chloramphenicol ([8]; norA knockout): little potentiation; potentiation of chloramphenicol ([8]; wild-type USA300): marked potentiation of antibiotic activity in a dose responsive manner; also recorded: strongly potentiate chloramphenicol activity; FP* (fold potentiation of tetracycline EC50) ([3]; 25 µg ml-1 TPI, EC50 tetracycline no TPI / with TPI): 5 fold; FP# (fold potentiation of tetracycline EC90) ([3]; 25 µg ml-1 TPI, EC90 tetracycline no TPI / with TPI): 7.5 fold; TPI (inhibitory concentration of polyamine alone) ([3]; polyamine alone, 25 µg ml-1 highest tested): > 25 µg/mL

— paper PMC6010545, “Identification of a Novel Polyamine Scaffold With Potent Efflux Pump Inhibition Activity Toward Multi-Drug Resistant Bacterial Pathogens” (Frontiers in Microbiology, 2018)
